Test results published in US20260151383A1, “HETEROCYCLIC COMPOUNDS AND USES THEREOF” (KayoThera Inc., priority 2022, published 2026).

How the values were obtained:
Type in all cases: biochemical
Conditions in all cases: recombinant enzyme, 20° C., activity level classes
[1] = molecular target: T1, mALDH1a3 (Mus musculus, UniProt Q9JHW9); assay: Aldh1a3 enzyme inhibition assay (resorufin fluorescence), mouse enzyme
T1 construct: made in house; host or cells: E. coli BL21-DE3
T1 sequence (Q9JHW9 1-512): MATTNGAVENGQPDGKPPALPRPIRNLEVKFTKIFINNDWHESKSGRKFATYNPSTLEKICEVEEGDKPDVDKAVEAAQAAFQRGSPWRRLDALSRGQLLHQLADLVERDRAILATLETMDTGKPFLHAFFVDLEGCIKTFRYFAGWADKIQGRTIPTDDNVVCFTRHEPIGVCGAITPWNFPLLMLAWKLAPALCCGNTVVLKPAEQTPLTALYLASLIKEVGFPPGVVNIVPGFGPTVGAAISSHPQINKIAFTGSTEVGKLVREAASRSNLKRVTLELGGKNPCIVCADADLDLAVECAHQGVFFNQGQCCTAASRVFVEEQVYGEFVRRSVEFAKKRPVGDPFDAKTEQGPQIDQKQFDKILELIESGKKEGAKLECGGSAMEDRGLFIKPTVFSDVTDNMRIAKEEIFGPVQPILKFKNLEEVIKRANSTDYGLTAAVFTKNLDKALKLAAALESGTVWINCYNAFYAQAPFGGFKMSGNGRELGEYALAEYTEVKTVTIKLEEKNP
Excerpt: Recombinant enzyme and inhibitor added immediately before assay. Reaction rate measured by resorufin fluorescence.

[2] = molecular target: T2, hALDH1a3 (Homo sapiens, UniProt P47895); assay: Aldh1a3 enzyme inhibition assay (resorufin fluorescence), human enzyme
T2 construct: made in house; host or cells: E. coli BL21-DE3
T2 sequence (P47895 1-512): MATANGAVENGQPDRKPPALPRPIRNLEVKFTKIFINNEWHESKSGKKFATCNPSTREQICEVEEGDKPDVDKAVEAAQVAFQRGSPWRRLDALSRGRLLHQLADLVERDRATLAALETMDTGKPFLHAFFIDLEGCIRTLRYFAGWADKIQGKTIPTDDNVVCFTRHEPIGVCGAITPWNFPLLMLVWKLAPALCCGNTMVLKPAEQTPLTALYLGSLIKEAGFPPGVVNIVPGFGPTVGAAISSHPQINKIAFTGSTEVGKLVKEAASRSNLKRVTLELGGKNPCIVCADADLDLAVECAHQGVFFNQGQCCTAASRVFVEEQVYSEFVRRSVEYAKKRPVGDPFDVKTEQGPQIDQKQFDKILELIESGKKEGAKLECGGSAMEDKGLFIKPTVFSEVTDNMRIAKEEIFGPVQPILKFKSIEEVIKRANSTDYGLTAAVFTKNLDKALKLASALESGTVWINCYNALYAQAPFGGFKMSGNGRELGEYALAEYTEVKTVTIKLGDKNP

[3] = molecular target: T3, hALDH1a2 (Homo sapiens, UniProt O94788); assay: Aldh1a2 enzyme inhibition assay (resorufin fluorescence), human enzyme
T3 construct: made in house; host or cells: E. coli BL21-DE3
T3 sequence (O94788 1-518): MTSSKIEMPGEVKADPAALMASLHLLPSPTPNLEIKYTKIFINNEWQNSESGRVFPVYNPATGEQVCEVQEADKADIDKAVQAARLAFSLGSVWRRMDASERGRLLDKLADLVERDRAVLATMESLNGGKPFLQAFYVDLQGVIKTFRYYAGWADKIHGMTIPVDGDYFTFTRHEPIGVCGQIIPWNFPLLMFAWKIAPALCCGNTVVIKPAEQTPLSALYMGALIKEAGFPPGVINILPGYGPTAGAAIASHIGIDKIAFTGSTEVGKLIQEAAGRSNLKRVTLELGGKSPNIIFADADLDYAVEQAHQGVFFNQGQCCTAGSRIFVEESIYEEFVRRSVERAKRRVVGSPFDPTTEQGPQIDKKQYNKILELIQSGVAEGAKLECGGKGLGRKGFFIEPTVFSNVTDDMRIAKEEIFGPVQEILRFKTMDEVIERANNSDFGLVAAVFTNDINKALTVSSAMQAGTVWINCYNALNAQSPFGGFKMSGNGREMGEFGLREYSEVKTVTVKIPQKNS
Excerpt: (§1) Recombinant enzyme and inhibitor added immediately before assay. Reaction rate measured by resorufln fluorescence.

[4] = molecular target: T4, mALDH1a2 (Mus musculus, UniProt Q62148); assay: Aldh1a2 enzyme inhibition assay (resorufin fluorescence), mouse enzyme
T4 construct: made in house; host or cells: E. coli BL21-DE3
T4 sequence (Q62148 1-518): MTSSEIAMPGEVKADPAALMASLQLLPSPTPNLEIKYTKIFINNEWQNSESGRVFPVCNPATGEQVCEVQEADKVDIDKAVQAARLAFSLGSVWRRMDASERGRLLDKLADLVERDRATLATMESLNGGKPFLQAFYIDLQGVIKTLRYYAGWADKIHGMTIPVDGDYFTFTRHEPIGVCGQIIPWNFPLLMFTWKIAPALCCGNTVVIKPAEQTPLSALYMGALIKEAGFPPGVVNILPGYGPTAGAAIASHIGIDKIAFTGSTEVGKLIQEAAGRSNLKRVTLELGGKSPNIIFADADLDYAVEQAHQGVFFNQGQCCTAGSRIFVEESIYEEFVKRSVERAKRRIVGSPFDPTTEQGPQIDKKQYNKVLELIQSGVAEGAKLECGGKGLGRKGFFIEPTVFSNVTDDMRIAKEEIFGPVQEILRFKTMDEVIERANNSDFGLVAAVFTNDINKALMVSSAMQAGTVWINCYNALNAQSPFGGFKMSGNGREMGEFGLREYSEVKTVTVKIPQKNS
Excerpt: as §1

Row | SMILES | IC50 [1] | IC50 [2] | IC50 [3] | IC50 [4] | mAldh1a3 IC50 [1] | hAldh1a3 IC50 [2] | hAldh1a2 IC50 [3] | mAldh1a2 IC50 [4]
1 | Cc1cc(NC(=O)c2ccccc2-c2cccc(F)c2)cc2c1NC(=O)CC2 [Compound 23] | > 5000 nM | > 5000 nM | 1000 to 5000 nM | 1000 to 5000 nM |  |  |  | 
2 | CCc1nc[nH]c1C(=O)Nc1cc(C)c2c(c1)CCC(=O)N2 [Compound 59] | 250 to 1000 nM | 1000 to 5000 nM | 1000 to 5000 nM | 1000 to 5000 nM |  |  |  | 
3 | Cc1c(F)c(NC(=O)c2ncsc2CC(F)(F)F)cc2c1NC(=O)CC2 [Compound 72] | 100 to 250 nM | 100 to 250 nM | 100 to 250 nM | 250 to 1000 nM |  |  |  | 
4 | CCc1cnsc1C(=O)Nc1cc(C)c2c(c1)CCC(=O)N2 [Compound 48] | < 100 nM | 100 to 250 nM | 100 to 250 nM | 100 to 250 nM |  |  |  | 
5 | Cc1cc(NC(=O)c2scnc2CC2CC2)cc2c1NC(=O)CC2 [Compound 63] | < 100 nM | < 100 nM | 100 to 250 nM | 250 to 1000 nM |  |  |  | 
6 | CCc1ncoc1C(=O)Nc1cc(F)c2c(c1)C1CC1C(=O)N2 (stereo not shown) [Compound 62] | 1000 to 5000 nM | 1000 to 5000 nM | > 5000 nM | > 5000 nM |  |  |  | 
7 | CCc1ncsc1C(=O)Nc1cc(Cl)c2c(c1)C1CC1C(=O)N2 (stereo not shown) [Compound 43] | < 100 nM | 100 to 250 nM | 1000 to 5000 nM | 1000 to 5000 nM |  |  |  | 
8 | Cc1cc(NC(=O)c2ccncc2-c2ccccc2)cc2c1NC(=O)CC2 [Compound 1, N-(8-methyl-2-oxo-1,2,3,4-tetrahydroquinolin-6-yl)-3-phenylisonicotinamide] | 1000 to 5000 nM | 1000 to 5000 nM | 100 to 250 nM | 100 to 250 nM |  |  |  | 
9 | Cc1cc(OCCNC(=O)c2cccc(F)c2)cc2c1NC(=O)CC2 [Compound 8, 3-fluoro-N-(2-((8-methyl-2-oxo-1,2,3,4-tetrahydroquinolin-6-yl)oxy)ethyl)benzamide] |  |  |  |  | No activity | No activity | No activity | No activity
10 | O=C1CCc2cc(NC(=O)c3scnc3-c3cccc(F)c3)c(F)cc2N1 [Compound 5, N-(7-fluoro-2-oxo-1,2,3,4-tetrahydroquinolin-6-yl)-4-(3-fluorophenyl)thiazole-5-carboxamide] | 100 to 250 nM | < 100 nM | 1000 to 5000 nM | 1000 to 5000 nM |  |  |  | 
11 | O=C1CCc2cc(NC(=O)c3ccccc3-c3cccc(F)c3)ccc2N1 [Compound 22] |  | > 5000 nM | > 5000 nM | > 5000 nM | No activity |  |  | 
12 | Cc1cc(NC(=O)c2ncsc2CC(F)(F)F)cc2c1NC(=O)C1CC21 (stereo not shown) [Compound 40] | < 100 nM | < 100 nM | < 100 nM | < 100 nM |  |  |  | 
13 | O=C1CCc2cc(NC(=O)c3ccncc3-c3ccccc3)cc(Cl)c2N1 [Compound 20] | 1000 to 5000 nM | 1000 to 5000 nM | < 100 nM | 100 to 250 nM |  |  |  | 
14 | Cc1cc(NC(=O)c2ccncc2CC(F)(F)F)cc2c1NC(=O)CS2 [Compound 7] | 100 to 250 nM | 100 to 250 nM | 250 to 1000 nM | 250 to 1000 nM |  |  |  | 
15 | Cc1cc(NC(=O)c2scnc2CC(C)(C)C)cc2c1NC(=O)CC2 [Compound 64] | 1000 to 5000 nM | 250 to 1000 nM | 250 to 1000 nM | 1000 to 5000 nM |  |  |  | 
16 | Cc1cc(NC(=O)c2cnsc2CC(F)(F)F)cc2c1NC(=O)CC2 [Compound 49] | < 100 nM | < 100 nM | < 100 nM | 100 to 250 nM |  |  |  | 

Row | SMILES | IC50 [1] | IC50 [2] | IC50 [3] | IC50 [4] | mAldh1a3 IC50 [1] | hAldh1a3 IC50 [2] | hAldh1a2 IC50 [3] | mAldh1a2 IC50 [4]
17 | Cc1ccccc1-c1cnccc1C(=O)Nc1cc(C)c2c(c1)CCC(=O)N2 [Compound 15, N-(8-methyl-2-oxo-1,2,3,4-tetrahydroquinolin-6-yl)-3-(o-tolyl)isonicotinamide] |  |  | > 5000 nM | > 5000 nM | No activity | No activity |  | 
18 | Cc1cc(NC(=O)c2scnc2C2CC2)cc2c1NC(=O)CC2 [Compound 77] | 100 to 250 nM | 250 to 1000 nM | 250 to 1000 nM | 250 to 1000 nM |  |  |  | 
19 | Cc1cc(OCCN(C)C(=O)c2cccc(F)c2)cc2c1NC(=O)CC2 [Compound 9, 3-fluoro-N-methyl-N-(2-((8-methyl-2-oxo-1,2,3,4-tetrahydroquinolin-6-yl)oxy)ethyl)benzamide] | > 5000 nM | > 5000 nM | 1000 to 5000 nM | 1000 to 5000 nM |  |  |  | 
20 | Cc1cc(NC(=O)c2ccncc2-c2cccc(C#N)c2)cc2c1NC(=O)CC2 [Compound 12] |  |  | 1000 to 5000 nM | > 5000 nM | No activity | No activity |  | 
21 | CCc1ncoc1C(=O)Nc1cc(C)c2c(c1)C1CC1C(=O)N2 (stereo not shown) [Compound 60] | 100 to 250 nM | 250 to 1000 nM | 250 to 1000 nM | 250 to 1000 nM |  |  |  | 
22 | Cc1cc(NC(=O)c2scnc2-c2cccc(F)c2)cc2c1NC(=O)CC2 [Compound 4, 4-(3-fluorophenyl)-N-(8-methyl-2-oxo-1,2,3,4-tetrahydroquinolin-6-yl)thiazole-5-carboxamide] | 250 to 1000 nM | 100 to 250 nM | 250 to 1000 nM | 250 to 1000 nM |  |  |  | 
23 | CCc1cnsc1C(=O)Nc1cc(C)c2c(c1)C1CC1C(=O)N2 (stereo not shown) [Compound 41] | < 100 nM | < 100 nM | < 100 nM | < 100 nM |  |  |  | 
24 | Cc1cc(NC(=O)c2ocnc2CC(F)(F)F)cc2c1NC(=O)C1CC21 (stereo not shown) [Compound 82] | 100 to 250 nM | 100 to 250 nM | 100 to 250 nM | 100 to 250 nM |  |  |  | 
25 | CCc1ncsc1C(=O)Nc1cc(C)c2c(c1)CCC(=O)N2 [Compound 32] | < 100 nM | 100 to 250 nM | 250 to 1000 nM | 250 to 1000 nM |  |  |  | 
26 | CCc1scnc1C(=O)Nc1cc(Cl)c2c(c1)CCC(=O)N2 [Compound 44] | 100 to 250 nM | 1000 to 5000 nM | 1000 to 5000 nM | 1000 to 5000 nM |  |  |  | 
27 | Cc1cc(NC(=O)c2scnc2CC(F)(F)F)cc2c1NC(=O)CC2 [Compound 31] | < 100 nM | 100 to 250 nM | 250 to 1000 nM | 250 to 1000 nM |  |  |  | 
28 | O=C1CCc2cc(NC(=O)c3ccncc3-c3ccccc3F)cc(Cl)c2N1 [Compound 26] |  | 1000 to 5000 nM | 100 to 250 nM | 100 to 250 nM | No activity |  |  | 
29 | Cc1cc(NC(=O)c2scnc2CC(F)(F)F)cc2c1NC(=O)C1CC21 (stereo not shown) [Compound 33] | < 100 nM | 100 to 250 nM | < 100 nM | < 100 nM |  |  |  | 
30 | Cc1cc(NC(=O)c2ccncc2CC(F)(F)F)cc2c1NC(=O)CS2(=O)=O [Compound 28] | 1000 to 5000 nM | > 5000 nM | > 5000 nM | > 5000 nM |  |  |  | 
31 | O=C1CCc2cc(NC(=O)c3ncsc3CC(F)(F)F)cc(Cl)c2N1 [Compound 75] | 100 to 250 nM | < 100 nM | 100 to 250 nM | 250 to 1000 nM |  |  |  | 
